Results: patent US9314026B2, “Heterocyclylpyri(mi)dinylpyrazole” (Bayer Intellectual Property GmbH, priority 2011, dated 2016)

How the values were obtained:
Pyrenophora teres = experiment: Pyrenophora test (barley)/preventive; type: in vivo; conditions: 500 ppm of active ingredient, preventive, evaluated 7-9 days after inoculation, read-out: efficacy
Procedure: (§1) Pyrenophora Test (Barley)/Preventive Solvent: 49 parts by weight of N,N-Dimethylformamide Emulsifier: 1 part by weight of Alkylarylpolyglycolether To produce a suitable preparation of active compound, 1 part by weight of active compound is mixed with the stated amounts of solvent and emulsifier, and the concentrate is diluted with water to the desired concentration. To test for preventive activity, young plants are sprayed with the preparation of active compound at the stated rate of application. One day after this treatment, the plants are inoculated with an aqueous spore suspension of Pyrenophora teres.

Pyricularia oryzae = experiment: whole plant or invertebrate; type: in vivo; conditions: 168 h, read-out: efficacy
Venturia inaequalis = experiment: Venturia test (apples)/preventive; type: in vivo; conditions: 100 ppm of active ingredient, preventive, evaluated 10 days after inoculation
Procedure: (§2) Venturia Test (Apples)/Preventive Solvent: 24.5 parts by weight of acetone • 24.5 parts by weight of dimethylacetamide Emulsifier: 1 part by weight of alkylaryl polyglycol ether To produce a suitable preparation of active compound, 1 part by weight of active compound is mixed with the stated amounts of solvent and emulsifier, and the concentrate is diluted with water to the desired concentration. To test for preventive activity, young plants are sprayed with the preparation of active compound at the stated rate of application.

Sphaerotheca fuliginea = experiment: Sphaerotheca test (cucumber)/preventive; type: in vivo; conditions: Podosphaera fuliginea, 168 h, 500 ppm of active ingredient, preventive, evaluated 7 days after inoculation, 0% = untreated control, 100% = no disease, read-out: efficacy
Procedure: as §1, with “Sphaerotheca” for “Pyrenophora”, “(Cucumber)/Preventive” for “(Barley)/Preventive”, “Sphaerotheca fuliginea.” for “Pyrenophora teres.”

Alternaria solani = experiment: Alternaria test (tomato)/preventive; type: in vivo; conditions: 168 h, 500 ppm of active ingredient, preventive, evaluated 7 days after inoculation, read-out: efficacy
Procedure: as §1, with “Alternaria” for “Pyrenophora”, “(Tomato)/Preventive” for “(Barley)/Preventive”, “Alternaria solani. […] Then the plants are placed in an incubation cabinet at approximately 20° C. and a relative atmospheric humidity of 96%.” for “Pyrenophora teres.”

Leptosphaeria nodorum = experiment: Leptosphaeria test (wheat)/preventive; type: in vivo; conditions: Parastagonospora nodorum, 500 ppm of active ingredient, preventive, evaluated 7-9 days after inoculation, read-out: efficacy
Procedure: as §1, with “Leptosphaeria Test (Wheat)/Preventive” for “Pyrenophora Test (Barley)/Preventive”, “Leptosphaeria Test (Wheat)/Preventive Solvent: 49” for “Pyrenophora Test (Barley)/Preventive Solvent: 49”, “sprayed with a preparation of” for “sprayed with the preparation of”, “suspension of Leptosphaeria nodorum.” for “suspension of Pyrenophora teres.”

Septoria tritici = experiment: Septoria tritici-test (wheat)/preventive; type: in vivo; conditions: 500 ppm of active ingredient, preventive, evaluated 21 days after inoculation
Procedure: Septoria tritici-Test (Wheat)/Preventive Solvent: 49 parts by weight of n,n-dimethylacetamid Emulsifier: 1 part by weight of alkylaryl polyglycol ether To produce a suitable preparation of active compound, 1 part by weight of active compound or active compound combination is mixed with the stated amounts of solvent and emulsifier, and the concentrate is diluted with water to the desired concentration. To test for preventive activity, young plants are sprayed with the preparation of active compound or active compound combination at the stated rate of application. After the spray coating has been dried, the plants are sprayed with a spore suspension of Septoria tritici.

Phytophthora infestans = experiment: whole plant or invertebrate; type: in vivo; conditions: 72 h, read-out: efficacy
[1] = test system: Fusarium nivale (var. majus); experiment: Fusarium nivale (var. majus)-test (wheat)/preventive; type: in vivo; conditions: Microdochium nivale, 120 h, 500 ppm of active ingredient, preventive, evaluated 5 days after inoculation, read-out: efficacy
Procedure: Fusarium nivale (Var. Majus)-Test (Wheat)/Preventive Solvent: 49 parts by weight of n,n-dimethylacetamid Emulsifier: 1 part by weight of alkylaryl polyglycol ether To produce a suitable preparation of active compound, 1 part by weight of active compound or active compound combination is mixed with the stated amounts of solvent and emulsifier, and the concentrate is diluted with water to the desired concentration. To test for preventive activity, young plants are sprayed with the preparation of active compound or active compound combination at the stated rate of application. After the spray coating has been dried, the plants are slightly injured by using a sandblast and afterwards they are sprayed with a conidia suspension of Fusarium nivale (var. majus).

Fusarium graminearum = experiment: whole plant or invertebrate; type: in vivo; conditions: in Hordeum vulgare, 120 h, read-out: efficacy
[2] = determination of the log P values by HPLC on a reverse phase column (C18), EEC-Directive 79/831 Annex V.A8; type: physicochemical
Procedure: Method A Note on the determination of the log P values and mass detection: The stated log P values were determined in accordance with EEC-Directive 79/831 Annex V.A8 by HPLC (High Performance Liquid Chromatography) on a reverse phase column (C18). […] The mass detection was effected with an […] system. Method B Note on the determination of the log P values and mass detection: The stated log P values were determined in accordance with EEC-Directive 79/831 Annex V.A8 by HPLC (High Performance Liquid Chromatography) on a reverse phase column (C18). […] The mass detection was effected with the Micronass ZQ2000 mass detector from Waters. Method C Note on the determination of the log P values and mass detection: The stated log P values were determined in accordance with EEC-Directive 79/831 Annex V.A8 by UPLC (Ultra Performance Liquid Chromatography) on a reverse phase column (C18). […] The mass detection was effected with the LCT Premier or SQD mass detector from Waters.

Puccinia recondita = experiment: Puccinia test (wheat)/preventive; type: in vivo; conditions: 500 ppm of active ingredient, preventive, evaluated 7-9 days after inoculation, read-out: efficacy
Procedure: as §1, with “Puccinia” for “Pyrenophora”, “(Wheat)/Preventive” for “(Barley)/Preventive”, “Puccinia recondita.” for “Pyrenophora teres.”

Botrytis cinerea = experiment: Botrytis test (beans)/preventive; type: in vivo; conditions: 48 h, 100 ppm of active ingredient, preventive, size of lesions evaluated 2 days after inoculation, read-out: efficacy
Procedure: as §2, with “Botrytis” for “Venturia”, “(Beans)/Preventive” for “(Apples)/Preventive”, “compound. After” for “compound at”, “spray coating has dried on, 2 small pieces” for “stated rate”, “agar covered with growth of Botrytis cinerea are placed on each leaf.” for “application.”

SMILES | pest or weed control at 500 ppm (Pyrenophora teres) [%] | pest or weed control at 500 ppm (Pyricularia oryzae) [%] | efficacy (Venturia inaequalis) [%] | pest or weed control at 500 ppm (Sphaerotheca fuliginea) [%] | pest or weed control at 500 ppm (Alternaria solani) [%] | pest or weed control at 500 ppm (Leptosphaeria nodorum) [%] | efficacy (Septoria tritici) [%] | pest or weed control at 100 ppm (Phytophthora infestans) [%] | pest or weed control at 500 ppm [1] [%] | pest or weed control at 500 ppm (Fusarium graminearum) [%] | chromatographic logP [2] | pest or weed control at 500 ppm (Puccinia recondita) [%] | pest or weed control at 100 ppm (Botrytis cinerea) [%]
CC(=O)N(C(C)=O)c1cc(-c2c(-c3ccccc3)nn3c2CCCC3)ccn1 [Example 2, N-acetyl-N-[4-(2-phenyl-4,5,6,7-tetrahydropyrazolo[1,5-a]pyridin-3-yl)pyridin-2-yl]acetamide] | 100 | 70 | 71 | 96 | 100 | 95 | 100 | 95 | 100 | 100 | 2.22 | 100 | 87
O=C(C1CC1)N(C(=O)C1CC1)c1cc(-c2c(-c3ccc(F)cc3)nn3c2CCC3)ccn1 [Example 12, N-(cyclopropylcarbonyl)-N-{4-[2-(4-fluorophenyl)-5,6-dihydro-4H-pyrrolo[1,2-b]pyrazol-3-yl]pyridin-2-yl}cyclopropanecarboxamide] | 95 | 80 |  | 100 | 80 | 95 |  |  |  |  | 2.91 | 95 | 
CC(C)CC(=O)N(C(=O)CC(C)C)c1cc(-c2c(-c3ccc(F)cc3)nn3c2CCOC3C)ccn1 (centres unmarked) [Example 13, N-{4-[2-(4-fluorophenyl)-7-methyl-4,5-dihydropyrazolo[1,5-c][1,3]oxazin-3-yl]pyridin-2-yl}-3-methyl-N-(3-methylbutanoyl)butanamide] | 89 |  |  | 93 | 78 | 89 |  |  |  |  | 5.01 |  | 
CCC(=O)N(C(=O)C(C)C)c1cc(-c2c(-c3ccc(F)cc3)nn3c2CCOC3C)ccn1 (centres unmarked) [Example 3, N-{4-[2-(4-fluorophenyl)-7-methyl-4,5-dihydropyrazolo[1,5-c][1,3]oxazin-3-yl]pyridin-2-yl}-2-methyl-N-propionylpropanamide] | 100 | 90 | 95 | 95 | 90 | 90 | 100 | 91 | 100 | 89 | 3.83 | 95 | 88
CC(=O)N(C(C)=O)c1cc(-c2c(-c3ccsc3)nn3c2CCCC3)ccn1 [Example 4, N-acetyl-N-{4-[2-(3-thienyl)-4,5,6,7-tetrahydropyrazolo[1,5-a]pyridin-3-yl]pyridin-2-yl}acetamide] | 95 | 95 | 95 |  | 90 | 95 |  | 95 |  |  | 2.18 |  | 95
CC(=O)N(C(C)=O)c1cc(-c2c(-c3ccc(F)cc3)nn3c2CCOC3C)ccn1 (centres unmarked) [Example 10, N-acetyl-N-{4-[2-(4-fluorophenyl)-7-methyl-4,5-dihydropyrazolo[1,5-c][1,3]oxazin-3-yl]pyridin-2-yl}acetamide] | 95 |  |  | 95 | 90 | 90 | 80 |  | 100 | 94 | 2.56 | 95 | 
CC(=O)N(C(C)=O)c1cc(-c2c(-c3cccs3)nn3c2CCCC3)ccn1 [Example 8, N-acetyl-N-{4-[2-(2-thienyl)-4,5,6,7-tetrahydropyrazolo[1,5-a]pyridin-3-yl]pyridin-2-yl}acetamide] | 100 | 95 |  | 95 | 89 | 89 |  | 83 | 92 | 88 | 2.18 | 89 | 
